Structures can show the parent of a compound that is named as a salt.
Tests used:
LD 50 orally = conditions: in vivo; oral; 95% confidence limits in parentheses
Experimental: (§1) In every case, the compounds under test were administered orally. The results obtained are given in the table below which also gives the LD 50's (and their 95% confidence limits) of the compounds studied determined intravenously and orally.

[1] = electric "battle test" (Tedeschi & al); format: in vivo; conditions: oral; read-out: Electric Battle Test ED 50
Experimental: 3. the electric "battle test" (Tedeschi & al, J. Pharmacol., 1959, 125, pages […]); and
as §1

[2] = known properties of comparison compounds; cited from earlier work
rat = assay: anorexigenic effects in the rat trained to satisfy its alimentary needs in a period of 5 hours each 24 hours; format: in vivo; conditions: oral, read-out: Anorexia ED 50
Experimental: 1. a study of the anorexigenic effects in the rat trained to satisfy its alimentary needs in a period of 5 hours each 24 hours;
as §1

LD 50 intravenously = conditions: in vivo; intravenous; 95% confidence limits in parentheses
Experimental: as §1

mice = assay: motor activity in mice in the hour following administration; format: in vivo; conditions: 5 mg/kg, oral
Experimental: 2. the motor activity in mice in the hour following administration of the compound under test;
as §1

[3] = overall comparison of therapeutic index, activity and toxicity; format: in vivo; conditions: compared with compounds II and III
Experimental: The compounds of formula IA and their salts have interesting pharmacological properties which make them of therapeutic interest.
as §1

Structure (SMILES) | LD50 (LD 50 orally) [mg/kg] | ED50 [1] [mg/kg] | known pharmacological properties [2] | ED50 (rat) [mg/kg] | LD50 (LD 50 intravenously) [mg/kg] | solubility in water (solubility) | solubility in organic solvents (solubility; most usual organic solvents) | Motor Activity (mice) [%] | activity, overall [3] | therapeutic index [3] | toxicity [3]
FC(F)(F)c1cccc(N2CCNCC2)c1 [Compound II, N-(m-trifluoromethylphenyl)-piperazine, reference compound] | 200 | 15 | known to possess anorexigenic and anxiolytic properties | 25 | 80 | – | – | – | – | – | –
COC(=O)CCN1CCN(c2cccc(SC(F)(F)F)c2)CC1 [Example 5, N-(β-methoxycarbonyl-ethyl)-N'-(m-trifluoromethylthiophenyl)-piperazine hydrochloride] | – | – | – | – | – | soluble in water | – | – | – | – | –
FC(F)(F)Sc1cccc(N2CCNCC2)c1 [III, N-(m-trifluoromethylthiophenyl)-piperazine] | 210 | 15 | known to possess anorexigenic properties | 15 | 90 | soluble in water | soluble in water and in most usual organic solvents | 0 | – | – | –
Cl.N#CCCN1CCN(c2cccc(SC(F)(F)F)c2)CC1 [IA, N-(β-cyano-ethyl)-N'-(m-trifluoromethylthiophenyl)-piperazine hydrochloride] | 335 | 8 | – | 11 | 180 | soluble in water | – | 0 | higher activity | better therapeutic index than compounds II and III | lower toxicity
